Assay results reported in article PMC7536268, “Increased Antimicrobial Activity of Colistin in Combination With Gamithromycin Against Pasteurella multocida in a Neutropenic Murine Lung Infection Model” (Frontiers in Microbiology, 2020).
Where a SMILES comes first, the peptide text is derived from it. Bridges are numbered along the chain shown (N, C = ends). [ ]: non-standard residue; d: D form. The star is where a group is joined. X1 = CC[C@H](C)CCCCC(=O)*; Dab = NCC[C@H](N)C(=O)O

Assays:
[1] = tested on: Pasteurella multocida strains (D18, T5, and WJ11); test: Mutant prevention concentration (MPC); format: cell-based; settings: drug alone, agar, 72 h, 37°C
Protocol: The bacteria-containing broth was centrifuged at 3500 g for 15 min and resuspended in fresh MH II broth to obtain a solution containing 3 × 10^10 CFU/mL of P. multocida. The agar plates were produced by adding different concentrations of colistin and gamithromycin alone or in combination into the Mueller-Hinton agar medium supplemented with sterile defibrinated sheep blood. Aliquots of 100-μL inoculum were plated on four agar plates containing the same concentration of drug(s). Mutant prevention concentration (MPC) was defined as the lowest concentration that prevented the growth of bacteria after 72 h of incubation at 37°C.

[2] = PK in plasma and lung tissue of neutropenic lung-infected mice; settings: for AUC(0-t): Plasma AUClast; for Cmax: Plasma Cmax
Text: (§1) Five-week-old specific-pathogen-free female Institute of Cancer Research (ICR) mice weighing 20–22 g obtained from the Laboratory Animal Center of the Southern Medical University (SCXK 2016-0041, Guangzhou) were used in this experiment. Animals were maintained in the Laboratory Animal Center of the South China Agricultural University (SYXK 2014-0136, Guangzhou) in accordance with the National Standards for Laboratory Animals in China (GB 14925–2010). Neutropenia was generated by intraperitoneal injection of cyclophosphamide [TCI (Shanghai) Development Co., Ltd., Shanghai, China) 4 days before the 150-mg/kg dose and 1 day before the 100-mg/kg dose prior to lung infection ([Vogelman et al., 1988]). Three strains, namely, D18, T5, and WJ11, were incubated in MH II broth. Experimental mice were anesthetized via inhalation of isoflurane and then were hung on an adjustable-angled bracket by hooking their teeth. Endotracheal intubation was performed by importing 50 μL of a logarithmic-phase bacterial suspension (10^8–10^9 CFU/mL) into the lung through the larynges rimae using a preinserted tracheal tube ([Zhou et al., 2018]). All experimental protocols were approved by the Committee on the Ethics of Animals of South China Agricultural University.
Pharmacokinetics analysis of colistin (2.5 and 5 mg/kg), gamithromycin (1.5, 3, 6, 12, and 24 mg/kg) alone and in combination (2.5 mg/kg colistin, 3 mg/kg gamithromycin) was performed in 176 neutropenic lung-infected ICR mice following subcutaneous administration (SC). Plasma and lung tissue samples were withdrawn at the specified time point (four mice at each time point).
The concentration of colistin and gamithromycin in plasma and lung tissue was measured using a previously reported method ([Ma et al., 2008]; [Huang et al., 2010]; [Fu et al., 2018]). The limit of quantification for both colistin and gamithromycin was 0.01 mg/L in plasma and 0.2 μg/g in lung tissue. Recovery of colistin and gamithromycin in plasma and lung ranged between 88.2 and 113.1%. All inter- and intra-assay coefficients of variation were <10%. PK parameters in plasma and lung samples were estimated using a non-compartmental analysis method with WinNonlin software version 5.2.1 (Pharsight, St Louis, MO, United States).

[3] = tested on: Pasteurella multocida strains; test: Checkerboard combination susceptibility testing (MIC in combination, FIC index); format: cell-based; settings: colistin combined with gamithromycin, 37°C 24 h
Protocol: The susceptibility of the selected P. multocida isolates and the quality control isolate (ATCC 25922) to colistin, gamithromycin, cefquinome, enrofloxacin, tilmicosin, tylosin tartrate, and florfenicol alone was determined using the microdilution method in broth (conducted in triplicate) according to the guiding principles of the CLSI. Based on the action mechanism of each drug, the antimicrobial activity of colistin or cefquinome (drug A) in combination with gamithromycin, enrofloxacin, tilmicosin, tylosin tartrate, or florfenicol (drug B) was determined with the checkerboard method, according to the minimal inhibitory concentration (MIC) of each drug. Briefly, 50 μL of MH II broth was added to each well, and 50 μL of the indicated concentration of colistin or cefquinome was added into the first well of each line. This was followed by multiproportion dilution. Next, 50-μL samples of different concentrations of gamithromycin or the other drugs mentioned above were added to the dilution medium, and a 100 μL inoculum with a cell density of ∼1 × 10^6 colony-forming units (CFU)/mL was added to each well. The plates were then incubated at 37°C for 24 h. According to the EUCAST definitive document E.Def 1.2 ([Mccullough, 2010]), the fractional inhibitory concentration (FIC) index for combined administrations was defined as the sum of the FIC of drug A and the FIC of drug B, where FIC is the MIC of the drug combined with other drugs, divided by the MIC of the drug alone.

[4] = tested on: Pasteurella multocida strains (D18, T5, and WJ11); test: In vitro postantibiotic effect (PAE); format: cell-based; settings: 1 h exposure
Protocol: For determination of the postantibiotic effect (PAE) of colistin, gamithromycin was tested on D18, T5, and WJ11 isolates alone and in combination with colistin, and a 1 × 10^8 CFU/mL inoculum of each isolate was used after overnight incubation in MH II broth. A 0.5-mL sample of the inoculum and 0.5 mL of colistin or gamithromycin alone at 1 × or 4 × MIC, was added to 4 mL of fresh broth and incubated in a 37°C water bath for 1 h. Meanwhile, the same operation was performed for combinations of colistin at 0.25–0.5 mg/L and gamithromycin at 0.125–0.25 mg/L. Controls without drugs were included. Each inoculum was diluted 1000-fold after incubation for 1 h, and this was the starting point for PAE testing (0 h). Aliquots of 0.1 mL were withdrawn to count the bacterial burden as described above in time-kill tests at 0, 1, 2, 4, and 6 h. PAE was calculated using the equation: PAE = T – C, where T and C represent the time taken for drug-exposed (T) and control (C) cultures to increase by 1 log10 after drugs were removed ([Mackenzie and Gould, 1993]).

[5] = tested on: Pasteurella multocida strains (D18, T5, and WJ11); test: In vivo pharmacodynamics, neutropenic murine pneumonia model
Text: as §1

[6] = colistin 2.5 mg/kg SC alone, neutropenic lung-infected mice, lung tissue
[7] = colistin 5 mg/kg SC alone, neutropenic lung-infected mice, lung tissue
[8] = female, ICR, mouse, in vivo, sc, 2.5 mg/kg, colistin 2.5 mg/kg SC alone, neutropenic lung-infected mice, total plasma
[9] = female, ICR, mouse, in vivo, sc, 2.5 mg/kg, given in combination SC (2.5 mg/kg colistin, 3 mg/kg gamithromycin), total plasma
[10] = female, ICR, mouse, in vivo, sc, 5 mg/kg, colistin 5 mg/kg SC alone, neutropenic lung-infected mice, total plasma
[11] = given in combination SC (2.5 mg/kg colistin, 3 mg/kg gamithromycin), lung tissue
[12] = strain D18, 1 × MIC (colistin 32 mg/L, gamithromycin 0.5 mg/L)
[13] = strain T5, 1 × MIC (colistin 32 mg/L, gamithromycin 0.5 mg/L)
[14] = strain WJ11, 1 × MIC (colistin 1 mg/L, gamithromycin 0.5 mg/L)

Work on `CC[C@H](C)CCCCC(=O)N[C@@H](CCN)C(=O)N[C@H](C(=O)N[C@@H](CCN)C(=O)N[C@H]1CCNC(=O)[C@H]([C@@H](C)O)NC(=O)[C@H](CCN)NC(=O)[C@H](CCN)NC(=O)[C@H](CC(C)C)NC(=O)[C@@H](CC(C)C)NC(=O)[C@H](CCN)NC1=O)[C@@H](C)O` [Colistin] (X1-[Dab]T[Dab][Dab][Dab][dL]L[Dab][Dab]T; lactam 4-C) yielded an MPC ([1]; strain D18) of 128 mg/L, an MPC ([1]; strain T5) of 128 mg/L and an MPC ([1]; strain WJ11) of 64 mg/L. The “Lung AUClast” value [2, 6] was 5.22 mg⋅h/kg, the “Lung Cmax” value [2, 6] was 3.37 mg/kg and the “Lung T1/2” value [2, 6] was 76.8 min. The “Lung Tmax” value [2, 6] was 30 min, the “Plasma Tmax” value ([2]; colistin 2.5 mg/kg SC alone, neutropenic lung-infected mice, total plasma, non-compartmental) was 30 min and the “Lung AUClast” value [2, 7] was 12.20 mg⋅h/kg. For the same compound, the “Lung Cmax” value [2, 7] was 5.54 mg/kg, the “Lung T1/2” value [2, 7] was 103 min and the “Lung Tmax” value [2, 7] was 45 min. For the same compound, the AUC(0-t) [2, 8] was 3510 ng·h/mL, the AUC(0-t) [2, 9] was 3880 ng·h/mL and the Cmax [2, 8] was 3140 ng/mL. The Cmax [2, 9] was 3330 ng/mL, the half-life ([2]; female, ICR, mouse, in vivo, sc, 2.5 mg/kg, Plasma T1/2, colistin 2.5 mg/kg SC alone, neutropenic lung-infected mice, total plasma) was 40.2 min and the half-life ([2]; female, ICR, mouse, in vivo, sc, 2.5 mg/kg, Plasma T1/2, given in combination SC (2.5 mg/kg colistin, 3 mg/kg gamithromycin), total plasma) was 36.6 min. The Tmax ([2]; female, ICR, mouse, in vivo, sc, 5 mg/kg) was 45 min, the AUC(0-t) [2, 10] was 10500 ng·h/mL and the Cmax [2, 10] was 6330 ng/mL. For the same compound, the half-life ([2]; female, ICR, mouse, in vivo, sc, 5 mg/kg, Plasma T1/2, colistin 5 mg/kg SC alone, neutropenic lung-infected mice, total plasma) was 49.8 min, the “Lung AUClast” value [2, 11] was 5.10 mg⋅h/kg and the “Lung Cmax” value [2, 11] was 2.94 mg/kg. The “Lung T1/2” value [2, 11] was 69.6 min, the “Lung Tmax” value [2, 11] was 30 min and the “MIC (in combination)” value ([3]; strain CVCC 444) was 0.125 µg/mL. For the same compound, the “MIC (in combination)” value ([3]; strain D18) was 0.25 µg/mL, the “MIC (in combination)” value ([3]; strain PmP2 (pig)) was 0.125 µg/mL and the “MIC (in combination)” value ([3]; strain PmP17 (pig)) was 0.125 µg/mL. The “MIC (in combination)” value ([3]; strain T5) was 0.125 µg/mL, the “MIC (in combination)” value ([3]; strain WJ11) was 0.125 µg/mL and the “MIC (in combination)” value ([3]; strain WN71) was 0.0625 µg/mL. For the same compound, the “MIC (in combination)” value ([3]; strain WW81) was 0.5 µg/mL, the “MIC (in combination)” value ([3]; strain XX12) was 0.125 µg/mL and the PAE [4, 12] was 0.98 h. It also gave a PAE ([4]; strain D18, 4 × MIC) of 3.79 h, a PAE [4, 13] of 0.29 h and a PAE ([4]; strain T5, 4 × MIC) of 2.83 h. The PAE [4, 14] was 0.96 h, the PAE ([4]; strain WJ11, 4 × MIC) was 2.34 h and the “in vivo PD outcome” value ([5]; colistin alone 2.5 or 5 mg/kg SC every 12 h, all three isolates, 24 h) was “failure to inhibit growth of bacteria”.

Compound `CCCN1C[C@H](C)[C@@H](O)[C@](C)(O)[C@@H](CC)OC(=O)[C@H](C)[C@@H](O[C@H]2C[C@@](C)(OC)[C@@H](O)[C@H](C)O2)[C@H](C)[C@@H](O[C@@H]2O[C@H](C)C[C@H](N(C)C)[C@H]2O)[C@](C)(O)C[C@H]1C` [Gamithromycin] has an MPC ([1]; strain D18) of 1 mg/L, an MPC ([1]; strain T5) of 1 mg/L and an MPC ([1]; strain WJ11) of 1 mg/L. For the same compound, the “time of Cmax in lung tissue” value ([2]; mouse, in vivo) was 0.25 to 1 h, the “Lung T1/2” value ([2]; mouse, in vivo, SD) was 1355 ± 111 min and the “Lung Tmax” value ([2]; mouse, in vivo, SD) was 39 ± 17.4 min. The “Plasma T1/2” value ([2]; mouse, in vivo, SD) was 731.4 ± 19.8 min, the “Plasma Tmax” value ([2]; mouse, in vivo, SD) was 27 ± 12.6 min and the “MIC (in combination)” value ([3]; strain CVCC 444) was 0.25 µg/mL. The “MIC (in combination)” value ([3]; strain D18) was 0.0625 µg/mL, the “MIC (in combination)” value ([3]; strain PmP2 (pig)) was 0.125 µg/mL and the “MIC (in combination)” value ([3]; strain PmP17 (pig)) was 0.0625 µg/mL. The “MIC (in combination)” value ([3]; strain T5) was 0.125 µg/mL, the “MIC (in combination)” value ([3]; strain WJ11) was 0.25 µg/mL and the “MIC (in combination)” value ([3]; strain WN71) was 0.25 µg/mL. For the same compound, the “MIC (in combination)” value ([3]; strain WW81) was 0.25 µg/mL, the “MIC (in combination)” value ([3]; strain XX12) was 0.0625 µg/mL and the PAE [4, 12] was 0.21 h. For the same compound, the PAE ([4]; strain D18, 4 × MIC) was 0.51 h, the PAE [4, 13] was 0.54 h and the PAE ([4]; strain T5, 4 × MIC) was 1.83 h. For the same compound, the PAE [4, 14] was 0.59 h, the PAE ([4]; strain WJ11, 4 × MIC) was 1.16 h and the “dose required for effective treatment” value ([5]; gamithromycin monotherapy every 12 h) was ≥ 24 mg/kg.
